# In patent publication US7951359B2, “Compositions and methods for therapy or prevention of chemotherapy-induced neuropathy” (Merck Serono SA, priority 2004, dated 2011):
# Where two headings read alike, the source gives them in different places.
# Columns and labels:
# [1] = system: breast (MCF7) tumor cell line; assay: Cell survival by acid phosphatase activity assay, MCF7; type: cell-based, human
# Description: (§1) The human lung (SK-MES1) and breast (MCF7) tumor cell lines were obtained from ATCC. The cell lines were maintained in Dulbecco's MEM medium (Gibco; Invitrogen, Cergy-Pontoise, France, ref. 41965039) supplemented with 1% antibiotic/antimicotic mixture solution (Gibco, ref. 15240062), and 10% heat-inactivated foetal bovine serum (Gibco, ref. F7524, batch 92K3387). The cells were amplified in Nunc tissue culture flasks (80 cm2) in a humidified incubator at 37° C. with 5% CO2 in 95% air. Cultures were sub-cultured twice a week.
# (§2) The enzymatic activity has been proven to be proportional to the number of living cells (Ueda et al.; 1994).
# (§3) Three days after the last replication, tumor cells were seeded in 96 well-plates (TPP, VWR International, Fontenay-sous-bois, France) at a density of 1,500 cells (MCF7 line) or 3,000 cells (SK-MES1 line) per well, in a total volume of 100 μl/well and incubated overnight in a humidified incubator at 37° C. with 5% CO2 in 95% air. […] IL-6 (in buffer solution at 1.8 mg/ml, PH: 7) was immediately added at concentrations of 0, 3, 12, 50 or 200 ng/ml.
# (§4) Four days after the initiation of the intoxication, acid phosphatase activity (Example 21) in each cell culture was assessed.
# (§5) After removal of the culture medium, cells were rinsed with phosphate-buffered saline (PBS, Gibco, ref. 14190-094) and further incubated for 90 min at 37° C. in 100 μl of buffer containing 0.1 mol/l sodium acetate (pH 5.5), 0.1% Triton X100 (Sigma, ref. T9284) and 10 mmol/l p-nitrophenyl phosphate (Sigma, ref. N9389). Reaction was stopped by addition of 10 μl of 1 mol/l sodium hydroxide aqueous solution (Laboratoire de Produit Chimiques de la Robertsau, Strasbourg, France; ref. 28.252.293). Absorbance of the colored solution was measured at 405 nm in a microplate reader (Labsystems Multiskan Bichromatic, EST-LAB, Strasbourg, France).
# (§6) The results were expressed as percentage of optical density of the control cell cultures. The heights of the columns represent mean±SEM of percentages of 5-6 wells from two independent cultures.
# [2] = system: cisplatin induced neuropathy; type: in vivo, rat
# Description: The drug was diluted in 0.9% sterile aqueous solution of sodium chloride.
# 4-MC was diluted in 0.9% sterile aqueous solution of sodium chloride and injected daily via IP route from day 23 to the end of the experiment.
# Electrophysiological tests described in Example 17, were carried out in parallel to the behavioral tests (described in the preceding example) in cisplatin-established neuropathy model. The objective was to assess the therapeutic effect of IL-6 in cisplatin-induced loss of fiber/nerve function.
# (§7) Electrophysiological recordings were performed using a Neuromatic 2000M electromyograph (EMG) (Dantec, Les Ulis, France). Rats were anaesthetized by IP injection of 60 mg/kg ketamine chlorhydrate (Imalgene 500®, Rhône Merieux, Lyon, France). The normal body temperature was maintained around […] with a heating lamp and verified using a contact thermometer (Quick, Bioblock Scientific, Illkirch, France) placed on the tail surface.
# (§8) Sensitive nerve conduction velocity (SNCV) was also recorded. The tail skin electrodes were placed as follows: a reference needle inserted at the base of the tail and an anode needle placed 30 mm away from the reference needle toward the extremity of the tail. A ground needle electrode was inserted between the anode and reference needles. The caudal nerve was stimulated with a series of 20 pulses (for 0.2 ms) at an intensity of 12.8 mA. The velocity was expressed in m/s.
# (§9) H-wave reflex was recorded in the hind footpad muscle after stimulation of the sciatic nerve. A reference electrode and a ground needle were placed on the lower back of the rat. The sciatic nerve was stimulated with a single 0.2 ms pulse at supramaximal intensity. The amplitude (mV) of H wave and the proportion of animal lacking H wave response were the parameters studied.
# [3] = system: cisplatin induced neuropathy; assay: Morphometric analysis of sciatic nerve in cisplatin-treated rats, co-administration; type: in vivo, rat
# Description: The total number of fibers per nerve section was obtained from 3 randomized slices of each sample. The counting was performed on 2 selected fields per slice.
# [4] = system: cisplatin induced neuropathy; assay: Hot plate test in cisplatin-treated rats, co-administration; type: in vivo, rat
# Description: The rat was placed inside a glass cylinder of 17 cm height and 21 cm diameter on a heating-plate maintained at 52° C. (Medite OTS 40, Microm, Francheville, Rhône, France). The animal behavior was observed, particularly the licking of a foot and the adjusted leap. The latency before licking a foot or before jumping to escape the heat (adjusted leap) was recorded. The time needed to feel the thermal pain is related to the thermal sensitivity and tends to increase when thermal sensitivity is altered.
# [5] = Body weight in cisplatin induced neuropathy rat model; type: in vivo
# Description: (c) 4 treated-cisplatin-intoxicated groups (n=10) consisting of animals receiving daily SC injections of IL-6 compound at 4 different doses: 0.3, 1, 3, 10 μg/kg; and (d) a 4-methylcatechol (4-MC)-treated, cisplatin-intoxicated group (n=10) receiving a daily IP injection of 4-MC at 10 μg/kg. […] The drug was diluted in 0.9% sterile aqueous solution of sodium chloride.
# [6] = system: lung (SK-MES1) tumor cell line; assay: Cell survival by acid phosphatase activity assay, SK-MES1; type: cell-based, human
# Description: as §1, §2, §3, §4, §5, §6
# [7] = system: cisplatin induced neuropathy; type: in vivo, rat; remark: listed apart in the source
# Description: Electrophysiological monitoring in cisplatin-induced neuropathy model was carried out as described in Example 17. The objective was to assess the effect of co-administration with IL-6 in cisplatin-induced loss of fiber/nerve function.
# as §7
# Compound muscle action potential (CMAP) of M wave signal (or electrically evoked muscle potential) was recorded in the gastrocnemius muscle after stimulation of the sciatic nerve. M wave reflects the current developed during the action potential of muscle fibers. A reference electrode and an active needle were placed in the hind paw. A ground needle was inserted on the lower back of the rat. Sciatic nerve was stimulated with a single 0.2 ms pulse at supramaximal intensity. The […] of the motor wave was recorded and expressed in ms.
# as §8, §9
# [8] = cisplatin (2.5 μM), carboplatin (25 μM), 4 days
# [9] = IL-6 3, 12, 50 or 200 ng/ml, p>0.05
compound,measurement,setting,value
"N.N.[Cl][Pt][Cl] [cisplatin, Cis-dichlorodiamine platinum]",decrease in cell survival versus control,[1]; [8],about 50%
same,SNCV versus untreated control,"[2]; rat, in vivo",significantly slower
same,loss in H wave signal amplitude,"[2]; rat, in vivo",about 70%
same,fiber diameter,[3]; cisplatin alone,significantly decreases fibers diameter
same,percent of myelinated fibers versus control,[3]; cisplatin alone,significant reduction in the percent of myelinated fibers
same,percentage of degenerated fibers versus control,[3]; cisplatin alone,two-folds higher
same,hot plate first reaction to heat versus control,"[4]; cisplatin alone, from 3 weeks",significant delayed first reaction to heat
same,body weight lost at completion of cisplatin administration,"[5]; cisplatin 2 mg/kg IP twice a week, 4 weeks, vehicle-treated",about 10%
same,decrease in cell survival versus control,[6]; [8],about 50%
same,SNCV versus non-treated control,"[7]; rat, in vivo",significantly slow
same,reduction of H wave amplitude,"[7]; rat, in vivo",about 80%
IL-6: Recombinant human IL-6 produced in genetically engineered Chinese Hamster Ovary (CHO) cells,survival of vincristine or cisplatine or carboplatin treated cells in the presence of IL-6,[1]; [9],did not change significantly
same,effect of taxol on cell survival with IL-6,"[1]; IL-6 3-200 ng/ml, p>0.05",did not change the effect of taxol
same,survival of cells intoxicated with carboplatin and taxol in the presence of IL-6,[1]; p>0.05,remained unchanged
same,SNCV in cisplatin-treated animals,"[2]; IL-6 3 μg/kg, after 1 week of treatment, p≦0.01",improved the SNCV
same,loss of H wave amplitude,"[2]; IL-6 3 and 10 μg/kg SC daily from day 23, p≦0.05",reversed the loss of H wave amplitude
same,H wave amplitude loss recovered,"[2]; IL-6, 1 week after initiation of treatment",about 50%
same,H wave amplitude recovery,"[2]; IL-6, 2 weeks of treatment",full recovery
same,curing/ameliorating loss of fiber/nerve function compared with 4-MC,[2]; IL-6 vs 4-MC,more efficient than 4-MC
same,loss of myelin wall by cisplatin,"[3]; IL-6 1, 3, 10 μg/kg",significantly protected fibers against the loss of myelin wall
same,percentage of degenerated fibers by cisplatin,"[3]; IL-6 1, 3, 10 μg/kg",reduce the percentage of degenerated fibers
same,cisplatin-induced axon diameter decrease,"[3]; IL-6, statistically significant at 1-10 μg/kg",prevents/reduces cisplatin-induced axon diameter decrease
same,fiber diameter decrease by cisplatin,"[3]; IL-6 all doses tested, statistically significant at 1-10 μg/kg",prevents/reduce the diameter decrease
same,myelinated fibers in cisplatin treated rats,[3]; IL-6 co-administration,increased myelinated fibers
same,delay of the first reaction to heat by cisplatin,[4]; IL-6 10 μg/kg SC daily,fully prevented
same,delay of the first reaction to heat by cisplatin,"[4]; IL-6 0.3, 1, 3, 10 μg/kg SC daily, p≦0.05",prevented/reduced delay of the first reaction to heat
same,animal growth under cisplatin with IL-6,"[5]; IL-6 0.3, 1, 3, 10 μg/kg SC daily with cisplatin","marked inhibition of animal growth, regardless of IL-6 treatments undertaken"
same,survival of vincristine or cisplatine treated cells in the presence of IL-6,[6]; [9],did not change significantly
same,survival of carboplatin-intoxicated cells in the presence of IL-6,"[6]; IL-6 3, 12, 50 or 200 ng/ml, significant",decrease of survival
same,effect of taxol on cell survival with IL-6,"[6]; IL-6 3-200 ng/ml, p>0.05",did not change the effect of taxol
same,survival of cells intoxicated with carboplatin and taxol in the presence of IL-6,[6]; p>0.05,remained unchanged
same,loss of H wave amplitude by cisplatin,"[7]; IL-6 10 μg/kg SC daily, throughout the experiment",fully prevented the loss of H wave amplitude
same,loss of H wave amplitude by cisplatin,"[7]; IL-6 0.3, 1, 3, 10 μg/kg SC daily",reduce/prevent the loss of H wave amplitude
same,SNCV in cisplatin treated rats,"[7]; IL-6, especially at 3 and 10 μg/kg, after 5 weeks",improve SNCV
same,prevention of cisplatin-induced loss of fiber/nerve function compared with 4-MC,[7]; IL-6 vs 4-MC 10 μg/kg IP,more effective in preventing cisplatin-induced loss of fiber/nerve function than 4-MC
